Measurements published in patent US20260207551A1, “PHOSPHOGLICERATE DEHYDROGENASE INHIBITORS FOR THE TREATMENT OF FIBROSIS” (CHIESI FARMACEUTICI S.P.A., priority 2022, published 2026).

Columns and labels:
[1] = tested on: bleomycin-induced pulmonary fibrosis; experiment: Bleomycin-induced pulmonary fibrosis in male mice (Comparative Example 7); format: in vivo; conditions: for lung/body weight: NCT-503 100 mg/kg/day, Nintedanib esylate 60 mg/Kg/day
Method: The allosteric inhibitor NCT-503 has accordingly been assessed in the same murine model of Compound 19. Comparative Example 7 was carried out under the same experimental conditions of Example 5.
The treatment was stopped at day 10, after 4 days of treatment with NCT-503 600 mg/kg/day. After two days wash-out, the treatment re-started with a once daily regimen at the final dose of […].
The final dose was of 100 mg/kg/day.

[2] = tested on: alpha smooth muscle actin (α-SMA); experiment: TGF-b induced α-SMA expression in NHLFs (Western blot); format: cell-based, Human; conditions: 50 uM; NHLF, TGF-β (10 ng/ml) 48 h
Description: The antifibrotic activity of compounds of the present invention has been monitored measuring the expression of fibrotic mediators, collagen I (Col-I) and alpha smooth muscle actin (α-SMA) after treatment in lung cells with TGF-β in comparison with Nintedanib (see Frank Hilberg et al, Cancer Res 2008 Jun. 15; 68(12):4774-82), and allosteric inhibitor NCT-503 (see Hamanaka et al., Am J Respir Cell Mol Biol. 2018 May; 58(5):585-593).
Human normal lung fibroblasts (NHLFs) were purchased from Lonza (Basel, Switzerland). NHFLs were cultured in Eagle's Minimum Essential medium (EMEM) w/o serine and glycine, supplemented with 10% Fetal Bovine Serum (FBS), antibiotics (50 U/ml penicillin and 0.05 mg/ml streptomycin) and 2 mM L-glutamine, in an atmosphere of 95% air and 5% CO2 at 37° C. NHLFs cultures were used between passage 1 and 9. Before all the experiments, cells were incubated overnight in serum-free medium.
NHLFs were seeded in 12-well plates at cultured until 70% of confluency. To examine the expression of fibrotic markers, cells were treated with different concentrations of Compounds and NCT-503 in EMEM medium for 1 h followed by stimulation with TGF-β for 48 h at 37° C., 5% CO2. Following cell treatments, medium was removed and whole cell extracts were prepared by directly adding to the well the 1× loading buffer (125 mM Tris-HCl pH 6.8, 4% SDS, 0.2% Orange G, 50% glycerol, 2.5% β-mercaptoethanol, Li-cor Biosciences), boiled for 5 min and then electrophoresed on Mini protean TGX gel 4-12% (Biorad). After electrophoresis, proteins were transferred to a nitrocellulose membrane. Immunodetection of Col-I, α-SMA and glyceraldeide 3-phosphate dehydrogenase (GAPDH) were obtained by using mouse anti-CollA1 (Santacruz), mouse anti-α-SMA (sigma) and rabbit anti-GAPDH (Cell Signaling Technology) all diluted at 1:1000 in TBS-tween 0.1%. […] Detection and quantification were performed with Odyssey imaging system (Li-cor) using GAPDH as loading control.

[3] = Plasma and brain exposure after the last dose in bleomycin model (Comparative Example 7); format: in vivo, mice; conditions: after the last oral dose; 0.5 h, 2 h and 7 h
Method: Plasma and tissue exposures of NCT-503 were determined as described in Example 2. The plasma and brain concentrations of NCT-503 were determined by a liquid chromatography-tandem mass spectrometry (LC/MS/MS) assay. Plasma or tissue homogenate samples (tissues were homogenized with a water/acetonitrile 50/50 mixture) were extracted with 3 volumes of acetonitrile. Supernanatant was injected into HPLC system (Agilent 1260 Quaternary Pump equipped with an Agilent 1200 High Performance Autosampler SL; Agilent), using a Kinetex EVO C18 analytical column (100 A, 50×2.1 mm, 2.6 μm; Phenomenex). The mobile phases consisted of 0.1% formic acid in water (solvent A) and 0.1% formic acid in acetonitrile (solvent B); chromatographic separation was performed with gradient elution method (0.0-0.5 min, 5% B; 0.5-4.0 min, gradient to 90% B; 4.0-5.5 min, 90% B; 5.5-7.0 min, gradient to 5% B; 7.0-11.0 min, 5% B—flow rate: 0.3 mL/min).
Mass spectrometric analysis was performed on a linear ion trap triple quadrupole mass spectrometer (4000 Q TRAP; AB SCIEX) equipped with a turbo spray ion source; mass spectrometer was operated in positive ion mode and quantification was achieved by multiple reaction monitoring (MRM) mode. Peak integration was performed using Analyst (version 1.6.2.). […]
Plasma and brain exposure of NCT-503 was determined following the last oral dose at three timepoints (0.5 h, 2 h and 7 h).

[4] = tested on: αSMA; experiment: Phenotypic assay: high content aSMA staining in NHLF cells; format: cell-based, Human; conditions: for IC50: Homo sapiens, SMA, 72 h, read-out: aSMA pIC50 (converted)
Method: NHLF cells (Lonza #CC2512) were seeded as 2000 cells/well in 384-well plates in MEM medium w/o serine and glycine (Sigma #M2279)+1% pen/strep+5 mM L-glutamine +10% FBS and incubated overnight at 37° C., 5% CO2.
The next day, cells were washed with PBS and starvation MEM medium w/o serine and glycine (0% FBS) was added and cells were incubated overnight at 37° C., 5% CO2. The day after, cells were pre-incubated with compounds or vehicle (0.3% DMSO) for 1 h. Compounds were tested at 9 consecutive 3-fold dilutions starting from 30 μM. Each compound was tested in duplicate. Cells were further incubated for 72 h at 37° C., 5% CO2, 95% humidity. After 72 h of incubation, αSMA expression was quantified using immunostaining: • Fixation in 4% paraformaldehyde, • Blocking with 3% BSA, 2% FBS, 0.2% Triton-X in PBS, • Primary ab. anti-αSMA (AbCam #ab7817) diluted 500× in blocking buffer • Anti-mouse secondary ab. AF488 (ThermoFisher #A11029) • % of αSMA positive cells was determined by High Content Imaging (Molecular Device), data analysis was performed using MetaXpress software (Molecular Devices) and % of αSMA positive was further used to calculate % of inhibition for tested compounds. Total cell number was determined by Hoechst staining and % of viability over TGFβ stimulated controls was calculated.

[5] = tested on: bleomycin-induced pulmonary fibrosis; conditions: treated mice 7 days after intratracheal instillation of bleomycin; cited from earlier work
[6] = tested on: bleomycin-induced pulmonary fibrosis; experiment: Bleomycin-induced pulmonary fibrosis in male mice (Example 6); format: in vivo, Male C57BL6/J mice; conditions: Nintedanib esylate 50 mg/Kg bid
Method: The effect of Compound 19a was evaluated in a murine model (C57BL/6J mouse strain) in which fibrosis was induced by a double oropharyngeal (OA) instillation of bleomycin. The Compound 19a was administered under therapeutic regimen for 14 days, starting the treatments at day 7 from the first instillation of Bleomycin OA up to the day 21, considered the endpoint for this model.
All mice were maintained under pathogen-free conditions and had free access to food and water.
Lung injury was induced by double OA instillation of bleomycin hydrochloride (BLM, BAXTER, Deerfield, IL, USA) at day 0 and day 4 at the dose of 0.03 U/mouse in […] of saline solution (NaCl 0.9%). Control animals received double OA instillation of […] of saline solution.
The Compound 19a was orally administered twice daily at the three doses of 3, 30 and 100 mg/Kg 10 mL/Kg, using as vehicle for dissolution the 0.5% Tween 80, 0.5% Methylcellulose in H2O.
On day 21, the respiratory system mechanics were measured using the FlexiVent System (SCIREQ Inc., Montreal Qc, Canada) (Vanoirbeek et al., 2010).
Briefly, mice were anesthetized by intraperitoneal injection of ketamine (Anesketin®, Dechra Inc., Handelsweg, NL) and xylazine (Xilagesic®, Calier Inc., Barcelona, ES) solution (100 mg/Kg and 10 mg/Kg, respectively). Once anesthesia was achieved, to analyze forced vital capacity (FVC), anesthetized mice were tracheotomized using an 18-gauge metal cannula, connected via an endotracheal cannula to the FlexiVent and ventilated at a respiratory rate of 150 breaths/min and tidal volume of 10 mL/Kg against a positive end-expiratory pressure of 3 cm H2O to achieve a mean lung volume close to that during spontaneous breathing. To prevent spontaneous breathing mice also received pancuronium bromide at 1 mg/Kg intraperitoneally. FlexiVent software version 8.1 was used to perform the perturbations.
Immediately after the in-life evaluation, plasma and bronchoalveolar lavage fluid (BALF) samples were collected.
First, blood was collected by cardiac puncture, and plasma was obtained after centrifugation of blood at 2000×g and 4° C. for 10 minutes.
Subsequently, the lungs were gently rinsed three times using a tracheal cannula with 0.6 mL of clear BAL solution. The obtained BALF was centrifuged at 1000×g and 4° C. for 10 minutes. The cell-free supernatant was used for biomarkers quantitative determination.
The following biomarkers were determined in BALF and plasma samples by commercially available ELISA kits: Collagen I (evaluated in BALF), an index of collagen accumulation; matrix metallopeptidase 7 (MMP-7, evaluated in BALF), indicator of aberrant fibrogenesis and ECM remodeling and surfactant protein D (SP-D, evaluated in PLASMA), marker of alveolar epithelial cell damage and dysfunction.
Lastly, the entire lungs were resected, fixed with formalin and embedded in paraffin. Sections were stained with Masson's trichrome to assess the grade and severity of fibrosis and collagen deposition.

[7] = tested on: bleomycin-induced pulmonary fibrosis; experiment: Bleomycin-induced pulmonary fibrosis in male mice (Example 5)
Method: Male C57BL6/J mice (7-8 weeks old) were purchased from the Envigo RMS (San Pietro al Natisone (UD), Italy). All mice were maintained under pathogen-free conditions and were provided food and water ad libitum.
Lung injury was induced by double oropharyngeal instillation of Bleomycin hydrochloride (BLM, BAXTER) at day 0 and day 4 at the doses of 0.02 U/mouse in 50 μl of saline solution (0.9%). Control animals received double oropharyngeal instillation of 50 μl of saline solution.
Compound 19 was orally administered twice daily, starting on day 7 after the first oropharyngeal administration of bleomycin at the two doses of 400 and 600 mg/kg/day, 10 ml/kg, dissolved in 0.5% Tween 80, 0.5% Methylcellulose in H2O and treatment lasted for two weeks.
A group of animals was treated with Nintedanib esylate salt, at the dose of 60 mg/kg/day, 10 ml/kg, once daily, to compare the efficacy of the test compounds with an FDA approved drug for the treatment of IPF patients. Control mice were given vehicle-only over the same time intervals. Weight of all animals has been assessed twice a week starting from day 0 until day 21.
On days 21, mice were anesthetized by intraperitoneal injection of thiopental (200 mg/kg/10 ml; pentothal sodium, MSD Animal Health Srl). Blood was withdrawn by cardiac puncture and collected in heparine tubes. Plasma was obtained after centrifugation of blood at 10,000 g for 10 min. Lungs were lavage with saline solution through the heart, formalin fixed and paraffin embedded, and sections were stained with Masson's Trichrome to evaluate the grade and severity of fibrosis and collagen deposition.
Masson's Trichrome stained slides were also scanned with NanoZoomer S60 (Hamamatsu Photonics K.K., Shizuoka, Japan) and acquired into the Visiopharm Integrator System (VIS; version 2017.2.4.3387) for a quantification of pulmonary fibrosis by automated analysis with the support of a VIS Analysis Protocol Package (APP). The present APP has been designed to identify and then quantify the fibrotic tissue, detecting accumulation of altered connective tissue, excess of collagen deposition and cellular density.
To quantify lung protein content and the levels of specific proteins as markers of fibrosis and collagen deposition, lungs from subgroups of animals were weighted, homogenized in Phosphate buffer solution (PBS) and proteins of interest were quantified by immunometric or colorimetric assays. Hydroxyproline content was determined using the Hydroxyproline Colorimetric Assay Kit (Sigma MAK008, USA) according to the manufacturer's protocol. WISP-1, CollagenI, pro-CollagenI and Elastin were determined by Elisa kits. Protein quantification was performed using DC Protein Assay (Bio-Rad Laboratories, Italy). Plasma serine levels were measured using the DL-Serine Assay Kit (Abcam, Cambridge, MA).

For `Cc1cc(C)nc(NC(=S)N2CCN(Cc3ccc(C(F)(F)F)cc3)CC2)c1` [NCT-503], the “fibrosis severity (FIG. 20B)” value ([1]; 100 mg/kg/day) was “not significant trend in reducing fibrosis severity”, the “Ashcroft score analysis (FIG. 20A)” value ([1]; 100 mg/kg/day, compared to vehicle-treated mice) was “did not result in diminished Bleomycin-induced lung fibrosis” and the body weight ([1]; 200 mg/kg/day) was “did not show a significant worsening of the body weight”. For the same compound, the tolerability ([1]; 600 mg/kg/day (bid)) was “did not tolerate”, the survival ([1]; 600 mg/kg/day then 300 mg/kg/day once daily) was 40% and the “weight loss compared to Day 0” value ([1]; 600 mg/kg/day, 4 days of treatment) was ~ 20%. For the same compound, the lung/body weight [1] was “do not induce reduction of lung/body weight”, the “levels of pro-CollagenI and WISP-1” value ([1]; lung homogenates) was “not affected” and the “circulating serine levels (de novo serine synthesis)” value ([1]; plasma) was “did not induce inhibition of de novo serine synthesis”. The “TGF-b induced a-sma (% inh. 50 uM)” value [2] was 93%, the main brain/plasma ratio [3] was 2.4 and the “aSMA pIC50” value ([4]; NHLF, 72 h incubation) was greater than 5.0. For the same compound, the “expression of aSMA (in words)” value ([4]; after 72 hours of incubation) was “partially reduces the expression of aSMA” and the “attenuation of lung fibrosis” value [5] was “preliminary efficacy in attenuation of lung fibrosis”.

With `COC(=O)c1ccc2c(c1)NC(=O)/C2=C(\Nc1ccc(N(C)C(=O)CN2CCN(C)CC2)cc1)c1ccccc1` [Nintedanib, reference compound] the lung/body weight [1] was “do not induce reduction of lung/body weight”, the “reduction of Collagen I in BALF” value ([6]; Compound 19a 100 mg/Kg bid) was 56% and the “reduction of MMP-7 in BALF” value ([6]; Compound 19a 100 mg/Kg bid) was 86%. The “reduction of SP-D levels in plasma” value ([6]; Compound 19a 100 mg/Kg bid) was 87%, the “improvement of FVC decline” value ([6]; Compound 19a 100 mg/kg bid, vs BLM/vehicle) was “similarly to Nintedanib” and the “reduction of lung/body weight” value ([7]; Compound 19 highest dose (600 mg/kg/day), Nintedanib esylate 60 mg/kg/day, not significant) was −21%. For the same compound, the “body weight during 2-weeks of treatment” value ([7]; compared to BLM/Vehicle treated group) was “did not lose additional weight” and the “Ashcroft score (FIG. 11A)” value ([7]; day 21) was “reduced”.

`Cn1c(C(=O)NC2(c3ccc(C(C(=O)O)C4CC4)cc3)CCOC2)cc2c(Cl)c(Cl)ccc21` (racemic) [Compound 15, (±)-2-Cyclopropyl-2-(4-(3-(4,5-dichloro-1-methyl-1H-indole-2-carbox-amido)tetrahydrofuran-3-yl)phenyl)acetic acid] showed an IC50 ([4]; NHLF, 72 h incubation) of 2 µM.

`CCC(C(=O)O)c1ccc(C2(NC(=O)c3cc4c(Cl)c(Cl)ccc4n3C)CCOC2)cc1` (racemic) [Compound 72, (±)-2-{4-[3-(4,5-dichloro-1-methyl-1H-indole-2-amido)oxolan-3-yl]phenyl}butanoic acid] showed an IC50 ([4]; NHLF, 72 h incubation) of 1.26 µM.

In the case of `COc1cc2c(cc(C(=O)NC3(c4ccc(C(C(=O)O)C(C)C)cc4)CCOC3)n2C)c(Cl)c1Cl` (racemic) [Compound 20, (±)-2-{4-[3-(4,5-dichloro-6-methoxy-1-methyl-1H-indole-2-amido)oxolan-3-yl]phenyl}-3-methylbutanoic acid], the IC50 ([4]; NHLF, 72 h incubation) is reported as 1.26 µM.

Work on `Cn1c(C(=O)NC2(c3ccc(C(C(=O)O)C4CCCC4)cc3)CCOC2)cc2c(Cl)c(Cl)ccc21` (racemic) [Compound 16, (±)-2-cyclopentyl-2-{4-[3-(4,5-dichloro-1-methyl-1H-indole-2-amido)oxolan-3-yl]phenyl}acetic acid] yielded an IC50 ([4]; NHLF, 72 h incubation) of 0.501 µM.
